The values below come from article PMC9145483, “Substituted Purines as High-Affinity Histamine H3 Receptor Ligands” (Pharmaceuticals, 2022).

The IC50 is the point on the concentration scale where inhibition reaches its midpoint. Usually Kd stands for the free concentration of one partner at which half of the binding sites on the other are occupied at equilibrium, for simple one-to-one binding. Higher therefore signals lower affinity.

One series concerns the target T1, human histamine H3R (Homo sapiens, UniProt Q9Y5N1).
T1 construct: expressed in transfected cells; host or cells: HEK-293 cells, stably expressing; membrane preparations
The series can be described thus: Human histamine H3 radioligand displacement ([3H]Nα-methylhistamine). The format is binding.

Another series deals with H3R. Also noted: method as in PMID 30025902, PMID 31176569. Particulars: H3R affinity of previous ligands; cited from earlier work.
A short description of series [1]: MTT cytotoxicity assay, HEK-293. The format is cell-based. Particulars: human, HEK-293 cells, HEK-293, MTT, 0.1 to 100 μM. On the procedure:
(§1) The potential general nephrotoxic, neurotoxic and hepatotoxic effects of selected H3R ligands 3d and 3h were investigated to determine their influence on the viability of normal HEK-293, neuroblastoma SH-SY5Y and hepatoma HepG2 cell lines by a colorimetric MTT reduction assay (Table 2).
(§2) Cultures of HEPG2 (ATCC-HB-8065 TM), HEK293 (ATCC CRL-1573 TM) and SHSY-5Y (ATCC CRL-2266 TM) cell lines were used as experimental models. Cells were maintained in a DMEM culture medium supplemented with 10% Foetal Bovine Serum (FBS), in an incubator at 37 °C and a humidified atmosphere with 5% CO2. Cells were seeded on culture plates, were allowed to grow for 24 h and then were treated with the synthesized compounds for 48 h with 100, 10, 1 and 0.1 µM concentrations. Negative cell death control, corresponding to untreated cells, and positive cell death control, corresponding to cells treated with 10% SDS, were maintained.
(§3) In a colorimetric MTT reduction assay, sterile 96-well culture plates were used. An amount of 2000–2500 cells per well were seeded. Upon completion of treatment, the culture medium was vacuum aspirated and washed with 1x PBS, and then 100 μL of 0.5 mg/mL MTT solution was added for a period of 4 h at 37 °C for formazan crystal formation. […] The absorbance of each well was measured on the Synergy HTX microplate reader at 570 nm wavelength.
(In general: Formazan colour is commonly taken as a measure of viable cells.)

Another series concerns HEK-293 cell line. In words: MTT cytotoxicity assay, HEK-293. The format is cell-based. Conditions: HEK-293, MTT, 48 h, 0.1 to 100 μM. On the procedure: as §1, §2, §3
The nature of series [2]: MTT cytotoxicity assay, SH-SY5Y. The format is cell-based. Particulars: human, SH-SY5Y neuroblastoma cells, 0.1 to 100 μM. On the procedure: as §1, §2, §3
Series [3] relates to neuroblastoma SH-SY5Y cell line. In words: MTT cytotoxicity assay, SH-SY5Y. The format is cell-based. Conditions: 48 h, 0.1 to 100 μM. On the procedure: as §1, §2, §3
Series [4] is described as follows: MTT cytotoxicity assay, HepG2. The format is cell-based. Particulars: human, HepG2 hepatoma cells, 0.1 to 100 μM. On the procedure:
as §1, §2
(§4) In a colorimetric MTT reduction assay, sterile 96-well culture plates were used. An amount of 2000–2500 cells per well were seeded. Upon completion of treatment, the culture medium was vacuum aspirated and washed with 1x PBS, and then 100 μL of 0.5 mg/mL MTT solution was added for a period of 4 h at 37 °C for formazan crystal formation. At the end of the 4 h, 100 μL of 10% SDS in HCl was added and kept overnight in an incubator at 37 °C to dissolve the formed crystals. The absorbance of each well was measured on the Synergy HTX microplate reader at 570 nm wavelength.

The test system of a further series is hepatoma HepG2 cell line. The series can be described thus: MTT cytotoxicity assay, HepG2. The format is cell-based. Particulars: 48 h, 0.1 to 100 μM. How it is done: as §1, §2, §4
The mark [5] stands for this setting: [3H]Nα-methylhistamine 2 nM, HEK-293 membranes stably expressing human H3R, mean [95% CI], at least three experiments in duplicate, read-out: Ki (nM) [95% CI nM].
Setting [6] is: restated in Table 3, read-out: Biological Activity Ki.

Like-named read-outs stand apart in the source and are kept apart here.

T1 sequence (Q9Y5N1 whole entry): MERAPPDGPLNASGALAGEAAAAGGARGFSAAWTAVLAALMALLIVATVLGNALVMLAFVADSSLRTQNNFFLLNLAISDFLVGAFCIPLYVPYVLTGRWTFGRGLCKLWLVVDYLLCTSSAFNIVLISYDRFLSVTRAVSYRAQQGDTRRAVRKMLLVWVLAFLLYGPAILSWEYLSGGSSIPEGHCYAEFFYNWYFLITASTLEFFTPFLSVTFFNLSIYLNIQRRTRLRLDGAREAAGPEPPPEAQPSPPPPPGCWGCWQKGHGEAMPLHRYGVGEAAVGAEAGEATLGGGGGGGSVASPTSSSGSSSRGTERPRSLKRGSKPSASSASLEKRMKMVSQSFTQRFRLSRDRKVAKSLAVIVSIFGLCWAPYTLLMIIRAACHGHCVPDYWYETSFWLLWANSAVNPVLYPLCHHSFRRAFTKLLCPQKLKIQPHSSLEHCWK
Method for human histamine H3R: Radioligand displacement assays at the human histamine H3R were performed, as published previously [28]. […] At least three independent experiments of each compound in duplicate were conducted with 11 concentrations. Obtained data was analyzed with GraphPad Prism 7 (San Diego, CA, USA) using non-linear least squares fit and the equation “one site competition” (representative Figures given in the SI). Ki values were calculated according to the Cheng–Prusoff equation [29] and are reported as means with a 95% confidence interval. Statistical analyses were performed on the -logKi values and were converted to mean Ki values and a 95% confidence interval.

Take `Fc1ccc(Cn2cnc3c(N4CCC(N5CCCCC5)CC4)nc(Cl)nc32)cc1` [Compound 3e, 6-([1,4’-Bipiperidin]-1’-yl)-2-chloro-9-(4-fluorobenzyl)-9H-purine]: the Ki at human histamine H3R (setting [5]) is 94.6 nM.

Take `Fc1ccc(Cn2cnc3c(N4CCC(N5CCCCC5)CC4)ncnc32)cc1` [Compound 3a, 6-([1,4’-Bipiperidin]-1’-yl)-9-(4-fluorobenzyl)-9H-purine]: the Ki at human histamine H3R (setting [5]) and at human histamine H3R (setting [6]) was 105 nM each time.

On to `N#Cc1ccc(Cn2cnc3c(N4CCC(N5CCCCC5)CC4)ncnc32)cc1` [Compound 3c, 4-((6-([1,4’-Bipiperidin]-1’-yl)-9H-purin-9-yl)methyl)benzonitrile], for which the Ki at human histamine H3R (setting [5]) and on human histamine H3R (setting [6]) was 28.8 nM throughout.

On to `Clc1ccc(Cn2cnc3c(N4CCC(N5CCCCC5)CC4)ncnc32)cc1` [Compound 3b, 6-([1,4’-Bipiperidin]-1’-yl)-9-(4-chlorobenzyl)-9H-purine], for which the Ki on human histamine H3R (setting [5]) and on human histamine H3R (setting [6]) was 39.4 nM each time.

For `Clc1nc(N2CCC(N3CCCCC3)CC2)c2ccn(Cc3ccc4ccccc4c3)c2n1` [II], the Ki at H3R is 126 nM.

In the case of `Clc1nc(N2CCC(N3CCCCC3)CC2)c2ncn(Cc3c(Cl)cccc3Cl)c2n1` [Compound 3h, 6-([1,4’-Bipiperidin]-1’-yl)-2-chloro-9-(2,6-dichlorobenzyl)-9H-purine], the Ki at human histamine H3R (setting [5]) is 5.51 nM; on human histamine H3R (setting [6]), 5.5 nM. Further, the IC50 at 48 h in series [1], in series [2] and in series [4] was more than 30 µM each time. In addition, the IC50 in the series on HEK-293 cell line is 54.3 ± 3.54 µM; in series [3], 32.4 ± 4.75 µM; in the series on hepatoma HepG2 cell line it was 33.8 ± 4.29 µM.

For the molecule `Clc1cccc(Cl)c1Cn1cnc2c(N3CCC(N4CCCCC4)CC3)ncnc21` [Compound 3d, 6-([1,4’-Bipiperidin]-1’-yl)-9-(2,6-dichlorobenzyl)-9H-purine], the Ki at human histamine H3R (Table 3, read-out: Biological Activity −logKi (converted)) was 2.88 nM; on human histamine H3R (setting [5]) it was 2.91 nM. For the same molecule, the IC50 at 48 h in series [4] is more than 30 µM. The concentration for half-maximal inhibition (IC50) with hepatoma HepG2 cell line was 57.6 ± 12 µM.

On to `N#Cc1ccc(Cn2cnc3c(N4CCC(N5CCCCC5)CC4)nc(Cl)nc32)cc1` [Compound 3g, 4-((6-([1,4’-Bipiperidin]-1’-yl)-2-chloro-9H-purin-9-yl)methyl)benzonitrile], for which the Ki on human histamine H3R (setting [5]) and at human histamine H3R (setting [6]) was 77.8 nM throughout.

Take `Clc1nc(N2CCC(N3CCCCC3)CC2)c2ccn(Cc3c(Cl)cccc3Cl)c2n1` [III]: the Ki at H3R is 6 nM.

Molecule `CNCCc1cnc[nH]1` [[^3H]N^α-methylhistamine, reference compound] registered a Kd at human histamine H3R (radioligand used at 2 nM at human H3R) of 3.08 nM.

Consider `Clc1ccc(Cn2cnc3c(N4CCC(N5CCCCC5)CC4)nc(Cl)nc32)cc1` [Compound 3f, 6-([1,4’-Bipiperidin]-1’-yl)-2-chloro-9-(4-chlorobenzyl)-9H-purine], for which the Ki at human histamine H3R (setting [5]) and on human histamine H3R (setting [6]) was 44.6 nM in each case.
